{"source": "patent US20060069132A1", "about": "“Azolecarboxamide herbicides” (priority 2004, published 2006)", "key": {"southern sandbur": {"tested_on": "southern sandbur", "test": "Test E pre-/postemergence herbicide test", "type": "in vivo, Cenchrus echinatus", "conditions": "Preemergence", "in_short": "(§1)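 Greenhouse whole-plant test: compounds formulated in a non-phytotoxic solvent mixture with surfactant were applied preemergence to planted seeds and, concurrently, postemergence to plants 2 to 18 cm tall. Response was scored visually after 12 to 14 days, 0 meaning no effect and 100 complete control.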"}, "rice": {"tested_on": "rice", "test": "Test B pre-/postemergence herbicide test", "type": "in vivo, Oryza sativa", "conditions": "preemergence", "in_short": "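Pre: seeds sown, then sprayed. Post: 1–4-leaf plants (2–18 cm) sprayed at the same time. Paddy: flooded, treated at 2-leaf stage. Formulation: non-phytotoxic solvent with surfactant. Greenhouse 13–15 days; visual 0–100 score relative to controls.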"}, "chickweed": {"tested_on": "chickweed", "test": "Test C postemergence herbicide test", "type": "in vivo, Stellaria media", "in_short": "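Weeds and wheat were sprayed after emergence, at a height of 2 to 18 cm (1–4 leaves), and paddy barnyardgrass was flooded and treated at two leaves. Assessment took place 12–14 days later in the greenhouse on a 0-to-100 visual control scale. A dash means no result was obtained.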"}, "field bindweed": {"tested_on": "field bindweed", "test": "Test E pre-/postemergence herbicide test", "type": "in vivo, Convolvulus arvensis", "conditions": "Preemergence", "in_short": "as §1"}, "morningglory": {"tested_on": "morningglory", "test": "Test C pre-/postemergence herbicide test", "type": "in vivo, Ipomoea coccinea", "set-up": "key to Plant response rating, Morningglory: 0 = no effect, 100 = complete control", "conditions": "for Morningglory plant response rating: 500 g ai/ha", "in_short": "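Pre- and postemergence application, solvent/surfactant formulation; post at 1- to 4-leaf stage (2–18 cm). Greenhouse 12–14 d. Visual rating vs controls, 0 = no effect, 100 = complete control.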"}, "[1]": {"conditions": "250 g ai/ha, scale 0 (no effect) to 100 (complete control)"}, "[2]": {"conditions": "500 g ai/ha, scale 0 (no effect) to 100 (complete control)"}, "[3]": {"conditions": "Postemergence, 250 g ai/ha, scale 0 to 100, 0 no effect, 100 complete control"}, "[4]": {"conditions": "postemergence, 125 g ai/ha, scale 0 to 100"}, "[5]": {"conditions": "postemergence, 62 g ai/ha, scale 0 to 100"}}}
{"molecule": "CCNC(=O)c1cccc(NC(=O)c2cc(C(C)(C)C)nn2CC)n1", "note": "[Compound 144]", "values": [{"measurement": "Plant response rating, Sandbur", "setting": "southern sandbur; 62 g ai/ha, scale 0 to 100", "result": 10}, {"measurement": "Plant response rating, Sandbur", "setting": "southern sandbur; 125 g ai/ha, scale 0 (no effect) to 100 (complete control)", "result": 30}, {"measurement": "Plant response rating, Sandbur", "setting": "southern sandbur; [1]", "result": 30}, {"measurement": "Plant response rating, Sandbur", "setting": "southern sandbur; [2]", "result": 60}, {"measurement": "Plant response rating, Rice", "setting": "rice; 500 g ai/ha, visual rating 0-100, 0 no effect, 100 complete control", "result": 30}, {"measurement": "Plant response rating, Rice", "setting": "rice; 125 g ai/ha, 0 to 100 scale, 0 is no effect, 100 is complete control", "result": 20}, {"measurement": "Chickweed plant response rating", "setting": "chickweed; Postemergence, 500 g ai/ha, scale 0 to 100", "result": 100}, {"measurement": "Plant response rating, Chickweed", "setting": "chickweed; [3]", "result": 100}, {"measurement": "Plant response rating, Chickweed", "setting": "chickweed; [4]", "result": 100}, {"measurement": "Plant response rating, Chickweed", "setting": "chickweed; [5]", "result": 100}, {"measurement": "Plant response rating, Bindweed, Field", "setting": "field bindweed; 62 g ai/ha, scale 0 to 100", "result": 0}, {"measurement": "Plant response rating, Bindweed, Field", "setting": "field bindweed; [1]", "result": 50}, {"measurement": "Plant response rating, Bindweed, Field", "setting": "field bindweed; [2]", "result": 80}, {"measurement": "Plant response rating (0 = no effect, 100 = complete control), Morningglory", "setting": "morningglory; 62 g ai/ha, preemergence", "result": 0}, {"measurement": "Plant response rating, Morningglory", "setting": "morningglory; 125 g ai/ha, scale 0 (no effect) to 100 (complete control), visual, 12 to 14 days, preemergence", "result": 30}, {"measurement": "Morningglory plant response rating", "setting": "morningglory; Postemergence, scale 0 to 100", "result": 80}, {"measurement": "Plant response rating, Morningglory", "setting": "morningglory; [3]", "result": 20}, {"measurement": "Morningglory plant response rating", "setting": "morningglory; Preemergence, scale 0 to 100, 0 no effect, 100 complete control", "result": 90}, {"measurement": "Plant response rating, Morningglory", "setting": "morningglory; [4]", "result": 0}, {"measurement": "Plant response rating, Morningglory", "setting": "morningglory; [5]", "result": 0}]}
